Experimental data from patent US10369105B2, “Nanoparticulate compositions for targeted delivery of acid labile, lipophilic prodrugs of cancer chemotherapeutics and their preparation” (Veiled Therapeutics LLC, priority 2014, dated 2019).

Legend:
[1] = MTD/tolerability study ATL-1, IV Q1Dx5, nontumored mice
Experimental: (§1) MTD study consisted of two major phases:
(§2) Material remaining from the dosing emulsion solutions was shipped back to Arbor Therapeutics after the end of the treatment phase. […] The assessment of returned material was carried out side by side with material retained.
(§3) Paclitaxel was included as a reference compound. • Tumor Model:
The studies ATL-1 and ATL-2 consisted each of six groups of five nontumored mice per group for a total of 30 mice on Day 1, the first day of treatment. All treatments were administered intravenously (IV) once a day for five consecutive days (Q1Dx5) beginning on Day 1.
(§4) Animals in Group 5 (Emulsion control) were treated with a drug free formulation (injection volume of 0.21 mL/20 g of body weight).

[2] = tested on: human MDA-MB-231 mammary tumor xenografts; assay: MTD/tolerability and efficacy study ATL-2, IV Q1Dx5, tumored mice
Experimental: as §1, §2, §3
[…] All treatments were administered intravenously (IV) once a day for five consecutive days (Q1Dx5) beginning on Day 1.
as §4

[3] = tested on: human MDA-MB-231 mammary tumor xenografts; assay: Antitumor efficacy study ATL-3, IV Q1Dx5 and Q4Dx3; type: in vivo, human tumor in female athymic NCr-nu/nu mice; settings: for complete tumor regressions: ten mice
Experimental: Experiment ATL-3 was performed to evaluate the antitumor activity of the intravenous (IV) treatment with formulated ART-207 when administered on two different schedules to female, athymic NCr-nu/nu mice implanted subcutaneously (SC) with human MDA-MB-231 mammary tumor xenografts. Paclitaxel was included as a reference compound. • Tumor Model:
Individual tumors of 90 animals grew to 88-216 mg in weight (88-216 mm3 in size) on Day 10 after tumor fragments implantation, the day of treatment initiation. […] The time points are indicated starting from the first day of treatment with formulated ART-207, vehicle control and Paclitaxel. • Study Design: […]
Animals in Groups 2, 3, and 4 were treated with formulated ART-207 which was administered IV on a Q1Dx5 schedule starting on Day 0 (Days 0-4) at doses of 105.2, 78.9, and 52.6 mg/kg/injection, respectively. Animals in Group 5 (Emulsion control) were treated IV on Q1Dx5 schedule starting on Day 0 with a drug free formulation. […] Animals in Group 7 were treated with formulated ART-207 which was administered IV once every four days for a total of three injections (Q4Dx3) starting on Day 0 (Days 0, 4, and 8) at a dose of 78.9 mg/kg/injection. Animals in Group 8 (Emulsion control) were treated IV on a Q4Dx3 schedule starting on Day 0 with a drug free formulation. Animals in Group 9 were treated IV on a Q4Dx3 schedule starting on Day 0 with paclitaxel at a dose of 18.9 mg/kg/injection.

[4] = PK/PD study ATL-4: plasma and tissue concentrations after single IV injection, nontumored mice; type: in vivo, female athymic NCr-nu/nu mice; settings: paclitaxel 18.9 mg/kg single IV
Experimental: Tumor Model; Experiment ATL-4. Animals were nontumored.
Experiment ATL-4: The study consisted of ten groups of three nontumored mice per group for a total of 30 mice on Day 1, one day before the treatment. All treatments were administered as a single IV injection on Day 2.

[5] = breast cancer patients; cited from earlier work
[6] = IV Q1Dx5, formulated ART-207 72.6, 47.1, 35.7 and 23.7 mg/kg/injection, paclitaxel 15 mg/kg/injection
[7] = Study # 1, tumor size 270 mg, Q1Dx5, dose 15 mpk
[8] = Study # 2, tumor size 150 mg, Q1Dx5, dose 15 mpk
[9] = paclitaxel 15 mg/kg/injection IV Q1Dx5 (Group 6)
[10] = paclitaxel 18.9 mg/kg/injection IV Q4Dx3 (Group 9)

Structure (SMILES): CC(=O)O[C@H]1C(=O)[C@@]2(C)[C@H]([C@H](OC(=O)c3ccccc3)[C@]3(O)C[C@H](OC(=O)[C@H](O)[C@@H](NC(=O)c4ccccc4)c4ccccc4)C(C)=C1C3(C)C)[C@]1(OC(C)=O)CO[C@@H]1C[C@@H]2O [Paclitaxel]
- maximum tolerated dose (MTD) ([1]; IV Q1Dx5, nontumored mice, no death or more than 20% body weight loss within 14 days of end of treatment): above 15 mg/kg/injection
- tolerability / deaths (in words) [1, 6]: tolerated without deaths
- maximum tolerated dose (MTD) ([2]; IV Q1Dx5, tumored mice): below 15 mg/kg/injection
- tolerability / deaths (in words) [2, 6]: toxic
- animals died before day 11 ([2]; Paclitaxel 15 mg/kg IV Q1Dx5, day 0 = first treatment): 4 of 5
- Survival rate (end of study) [2, 7]: 20%
- Tumor free mice (end of study) [2, 7]: 0%
- animals euthanized due to being moribund ([2]; paclitaxel 15 mg/kg/injection IV Q1Dx5, Days 20 and 21): two
- deaths ([2]; paclitaxel 15 mg/kg/injection IV Q1Dx5, both deaths on Day 19): two out of five
- tumor weight of the surviving animal ([2]; paclitaxel 15 mg/kg/injection, Day 13): 180 mg
- tumor weight of the surviving animal ([2]; paclitaxel 15 mg/kg/injection, Day 47): 32 mg
- Survival rate (end of study) [3, 8]: 40%
- Tumor free mice (end of study) [3, 8]: 40%
- animals tumor-free on Day 56 [3, 9]: four
- median tumor growth delay [3, 9]: 31.8 days
- deaths ([3]; paclitaxel 15 mg/kg/injection IV Q1Dx5 (Group 6), Day 2): one out of ten
- animals euthanized due to ataxia ([3]; paclitaxel 15 mg/kg/injection IV Q1Dx5 (Group 6), Day 12): One
- complete tumor regressions [3, 9]: five
- tolerability / deaths (in words) [3, 10]: tolerated without deaths or mean body weight loss
- complete tumor regressions [3, 10]: one
- AUC(0-t) ([4]; female, athymic NCr-nu/nu, mouse, plasma, read-out: AUClast for paclitaxel in plasma): 37.7 µg·h/mL
- half-life ([4]; female, athymic NCr-nu/nu, mouse, plasma, read-out: apparent terminal elimination half-life of paclitaxel in plasma (converted)): 1 h
- clearance ([4]; female, athymic NCr-nu/nu, mouse, plasma, read-out: total body clearance of paclitaxel (converted)): 0.5 L/h/kg
- Vd ([4]; female, athymic NCr-nu/nu, mouse, plasma, read-out: volume of distribution of paclitaxel at steady state): 0.658 L/kg
- mean peak plasma concentration of paclitaxel ([4]; at 5 minutes (0.083 hours)): 32.9 µg/mL
- half-life (t1/2) [5]: 3.5 ± 0.80 h
